Results: paper PMC4698308, “A new amino acid substitution (Ala-205-Phe) in acetolactate synthase (ALS) confers broad spectrum resistance to ALS-inhibiting herbicides” (Planta, 2015)
Where two headings read alike, the source gives them in different places.

Columns and labels:
[1] = system: annual bluegrass (Poa annua L.); assay: Whole plant non-target site resistance experiment with P450 inhibitors malathion or PBO (control 21 days after treatment); format: in vivo; conditions: for Annual bluegrass control S: susceptible (S)
Method: Additional experiments were conducted during March–April 2015 to determine if non-target site based mechanisms conferred resistance to ALS inhibitors in our annual bluegrass population, POAAN-R3. Plants (RP6, RP7, and S) were cultured in plastic conical containers as previously described and allowed to acclimate to the glasshouse for 18 days prior to initiating two experiments.
In the first experiment, resistant (RP6, RP7) and susceptible (S) plants were treated with foramsulfuron at 29 g ha^−1, trifloxysulfuron (Monument. Syngenta Professional Products. Greensboro, NC, USA) at 27.8 g ha^−1, imazaquin (Image. BASF Corporation. Research Triangle Park, NC) at 27.5 g ha^−1, or bispyribac-sodium (Velocity. Valent USA Corporation. Walnut Creek, CA, USA) at 70 g ha^−1. All herbicides were applied alone or in combination with either malathion (Spectrum Group. St. Louis, MO, USA) at 1000 g ha^−1 or piperonyl butoxide (Sigma Aldrich. St. Louis, MO, USA) at 2100 g ha^−1. Malathion and piperonyl butoxide (PBO) inhibit cytochrome P450 monooxygenases involved in metabolism of ALS inhibiting herbicides and are commonly used at the application rates tested herein to evaluate non-target site based resistance mechanisms in weeds (Burnet et al. [1994]; Christopher et al. [1992]; Yu and Powles [2014b]; Rao et al. [1995]). All herbicides were mixed in water carrier and included non-ionic surfactant at 0.25 % v/v. Malathion and PBO were mixed with methanol and de-ionized water (50:50) and applied 60 min prior to herbicide application using a previously described enclosed spray chamber on 13 February 2015.
Annual bluegrass control was visually assessed on a 0 (i.e., no control) to 100 % (i.e., complete kill) scale relative to the non-treated 21 days after treatment. After all control data had been collected, aboveground biomass was harvested from each plastic conical container at the soil line using scissors, dried at 100 °C, and weighed. Treatments were arranged as a 3 × 5 × 3 factorial with three plant selections (RP6, RP7, S), five herbicides (foramsulfuron, trifloxysulfuron, imazaquin, bispyribac-sodium, non-treated) and three P450 inhibitor treatments (malathion, PBO, non-treated) in a completely randomized design with four replications and repeated in separate glasshouses during February 2015.

[2] = system: recombinant Arabidopsis thaliana ALS variant A205V; format: biochemical; conditions: IC50 mutant divided by IC50 sensitive ALS; max inhibitor concentration 1.00 × 10^−04 M
Method: (§1) Effects of SNPs identified in sequencing analysis on ALS activity were studied using A. thaliana. The ALS gene from A. thaliana and derivatives thereof were de novo synthesized and subcloned into pET-24d(+) (Life Technologies. Grand Island, NY, USA) using NcoI and XhoI restriction sites. Protein constructs contained an 85 amino acid N-terminal deletion (chloroplast transit peptide) and the addition of an N-terminal Hexa-histidine tag to facilitate purification.
(§2) Lysis was performed by at least two passes through a fluidizer, followed by centrifuging at 80000×g for 30 min at 4 °C. […] Fractions containing ALS protein were pooled and stored at −20 °C.
(§3) Inhibitors, purchased from Sigma as Pestanal standards (Sigma-Aldrich, Deisenhofen, Germany), were dissolved in DMSO and added to the reaction mixture. Inhibitors evaluated included imidazolinone, sulfonylurea, triazolopyrimidines, sulfonylamino-carbonyl- triazolinones, and pyrimidinyl (thio) benzoate herbicides. The reaction mixture was incubated at 30 °C for 60 min and stopped with 70 µl of H2SO4 (3 M). The reaction was then heated to 56 °C for 15 min to convert acetolactate into acetoin. […] For each inhibitor, resistance factors were calculated by dividing IC50 values for mutant and sensitive ALS.

[3] = system: recombinant Arabidopsis thaliana ALS variant W574L; format: biochemical; conditions: IC50 mutant divided by IC50 sensitive ALS; max inhibitor concentration 1.00 × 10^−04 M
Method: as §1, §2, §3

[4] = target: T1, recombinant Arabidopsis thaliana ALS wild-type enzyme (WT—sensitive) (Arabidopsis thaliana, UniProt P17597); assay: biochemical
T1 construct: Protein constructs contained an 85 amino acid N-terminal deletion (chloroplast transit peptide); Hexa-histidine tag (N); made in house
T1 sequence (P17597 86-670): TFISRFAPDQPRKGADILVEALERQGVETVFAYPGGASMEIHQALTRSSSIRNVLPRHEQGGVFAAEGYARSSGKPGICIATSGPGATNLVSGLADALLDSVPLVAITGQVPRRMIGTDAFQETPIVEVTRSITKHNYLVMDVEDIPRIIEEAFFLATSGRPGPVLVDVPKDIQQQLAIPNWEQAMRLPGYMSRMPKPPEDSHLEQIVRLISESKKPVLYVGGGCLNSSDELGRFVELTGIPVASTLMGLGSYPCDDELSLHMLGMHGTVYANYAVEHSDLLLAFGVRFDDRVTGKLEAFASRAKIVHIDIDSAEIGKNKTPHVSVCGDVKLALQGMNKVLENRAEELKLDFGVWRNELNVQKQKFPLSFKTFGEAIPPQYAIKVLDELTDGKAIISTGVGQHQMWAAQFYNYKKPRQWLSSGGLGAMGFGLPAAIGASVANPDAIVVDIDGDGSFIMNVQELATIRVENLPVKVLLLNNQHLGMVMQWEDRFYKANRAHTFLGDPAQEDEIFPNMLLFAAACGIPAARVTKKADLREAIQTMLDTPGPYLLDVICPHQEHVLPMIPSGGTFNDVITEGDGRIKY
Method: as §1, §2, §3

[5] = system: annual bluegrass (Poa annua L.); assay: Whole plant non-target site resistance experiment, foramsulfuron vs sulfometuron (control and plant height 28 days after treatment); format: in vivo
Method: A second experiment was conducted to determine if non-target mechanisms could confer resistance to ALS inhibiting herbicides in our annual bluegrass population, POAAN-R3. ALS-resistant (RP1–RP8) and susceptible (S) plants were cultured in plastic conical containers under previously described glasshouse conditions for 28 days before being treated with foramsulfuron (29 g ha^−1) or sulfometuron-methyl (Oust XP; Dupont Professional Products. Wilmington, DE, USA) at 105 g ai ha^−1. Sulfometuron-methyl is an ALS inhibiting herbicide not metabolized by cytochrome P450 monooxygenases; therefore, it can be used to discern if weed populations survive ALS inhibiting herbicide treatment via target- or non-target site based mechanisms (Christopher et al. [1992]). Per label recommendations, sulfometuron-methyl included non-ionic surfactant at 0.25 % v/v. Treatments were mixed in water carrier applied in an enclosed spray chamber, as previously described, on 13 March 2015.
Annual bluegrass control was visually assessed on a 0 (i.e., no control) to 100 % (i.e., complete kill) scale relative to the non-treated 28 days after treatment. After all control data had been collected, plant height data were collected using a ruler placed at the soil surface of each plastic conical container and recording the distance to the tip of the bud leaf. Treatments were arranged as a 9 × 3 factorial with nine plant selections (RP1–RP8, S) and three herbicides (foramsulfuron, sulfometuron-methyl, non-treated) in a completely randomized design with four replications and repeated in separate glasshouses during March 2015.

## COc1cc(OC)nc(Oc2cccc(Oc3nc(OC)cc(OC)n3)c2C(=O)O)n1 [Bispyribac-sodium]
[1]; RP6, herbicide alone, foramsulfuron 29, trifloxysulfuron 27.8, imazaquin 27.5, bispyribac-sodium 70 g ha^−1
  Annual bluegrass control RP6: 28%
[1]; RP6, herbicide with PBO 2100 g ha^−1 applied 60 min prior
  Annual bluegrass control RP6: 20%
[1]; RP6, herbicide with malathion 1000 g ha^−1 applied 60 min prior
  Annual bluegrass control RP6: 32%
[1]; RP7, herbicide alone, foramsulfuron 29, trifloxysulfuron 27.8, imazaquin 27.5, bispyribac-sodium 70 g ha^−1
  Annual bluegrass control RP7: 7%
[1]; RP7, herbicide with PBO 2100 g ha^−1 applied 60 min prior
  Annual bluegrass control RP7: 14%
[1]; RP7, herbicide with malathion 1000 g ha^−1 applied 60 min prior
  Annual bluegrass control RP7: 47%
[1]; herbicide alone, foramsulfuron 29, trifloxysulfuron 27.8, imazaquin 27.5, bispyribac-sodium 70 g ha^−1
  Annual bluegrass control S: 90%
[1]; herbicide with PBO 2100 g ha^−1 applied 60 min prior
  Annual bluegrass control S: 86%
[1]; herbicide with malathion 1000 g ha^−1 applied 60 min prior
  Annual bluegrass control S: 92%

## CC(C)C1(C)N=C(c2ncccc2C(=O)O)NC1=O (stereo not drawn) [Imazapyr]
[2]
  Resistance factor A205V: 16
[3]
  Resistance factor W574L: 16
[4]
  IC50: 6060 nM

## O=C(Nc1nc(OC(F)F)cc(OC(F)F)n1)NS(=O)(=O)c1ccccc1C(=O)O [Primisulfuron]
[2]
  Resistance factor A205V: 429
[3]
  Resistance factor W574L: 5728
[4]
  IC50: 3.14 nM

## COc1nc(C)nc(NC(=O)NS(=O)(=O)c2ccccc2CCC(F)(F)F)n1 [Prosulfuron]
[2]
  Resistance factor A205V: 88
[3]
  Resistance factor W574L: 3524
[4]
  IC50: 2.88 nM

## COc1cc(OC)n2nc(NS(=O)(=O)c3c(C(F)(F)F)ccnc3OC)nc2n1 [Pyroxulam]
[2]
  Resistance factor A205V: 162
[3]
  Resistance factor W574L: 24,268
[4]; concentration for 50 % inhibition of WT enzyme, max inhibitor concentration 1.00 × 10^−04 M, read-out: WT sensitivity [IC50]
  IC50: 4.12 nM

## COC(=O)c1ccccc1S(=O)(=O)NC(=O)Nc1nc(C)cc(C)n1 [Sulfometuron, Sulfometuron-methyl]
[5]; RP1, 28 days after treatment, minimum of two tillers, foramsulfuron 29, sulfometuron 105 g ha^−1
  Annual bluegrass control RP1: 24%
[5]; RP1, plant height 28 days after treatment, foramsulfuron 29, sulfometuron 105 g ha^-1, non-treated 118 mm
  Annual bluegrass height RP1: 76 mm
[5]; RP2, 28 days after treatment, minimum of two tillers, foramsulfuron 29, sulfometuron 105 g ha^−1
  Annual bluegrass control RP2: 29%
[5]; RP2, plant height 28 days after treatment, foramsulfuron 29, sulfometuron 105 g ha^-1, non-treated 129 mm
  Annual bluegrass height RP2: 65 mm
[5]; RP3, 28 days after treatment, minimum of two tillers, foramsulfuron 29, sulfometuron 105 g ha^−1
  Annual bluegrass control RP3: 21%
[5]; RP3, plant height 28 days after treatment, foramsulfuron 29, sulfometuron 105 g ha^-1, non-treated 173 mm
  Annual bluegrass height RP3: 78 mm
[5]; RP4, 28 days after treatment, minimum of two tillers, foramsulfuron 29, sulfometuron 105 g ha^−1
  Annual bluegrass control RP4: 21%
[5]; RP4, plant height 28 days after treatment, foramsulfuron 29, sulfometuron 105 g ha^-1, non-treated 140 mm
  Annual bluegrass height RP4: 71 mm
[5]; RP5, 28 days after treatment, minimum of two tillers, foramsulfuron 29, sulfometuron 105 g ha^−1
  Annual bluegrass control RP5: 26%
[5]; RP5, plant height 28 days after treatment, foramsulfuron 29, sulfometuron 105 g ha^-1, non-treated 114 mm
  Annual bluegrass height RP5: 68 mm
[5]; RP6, 28 days after treatment, minimum of two tillers, foramsulfuron 29, sulfometuron 105 g ha^−1
  Annual bluegrass control RP6: 76%
[5]; RP6, plant height 28 days after treatment, foramsulfuron 29, sulfometuron 105 g ha^-1, non-treated 106 mm
  Annual bluegrass height RP6: 56 mm
[5]; RP7, 28 days after treatment, minimum of two tillers, foramsulfuron 29, sulfometuron 105 g ha^−1
  Annual bluegrass control RP7: 28%
[5]; RP7, plant height 28 days after treatment, foramsulfuron 29, sulfometuron 105 g ha^-1, non-treated 125 mm
  Annual bluegrass height RP7: 69 mm
[5]; RP8, 28 days after treatment, minimum of two tillers, foramsulfuron 29, sulfometuron 105 g ha^−1
  Annual bluegrass control RP8: 21%
[5]; RP8, plant height 28 days after treatment, foramsulfuron 29, sulfometuron 105 g ha^-1, non-treated 132 mm
  Annual bluegrass height RP8: 67 mm
[5]; susceptible (S), 28 days after treatment, minimum of two tillers, foramsulfuron 29, sulfometuron 105 g ha^−1
  Annual bluegrass control S: 99%
[5]; susceptible (S), plant height 28 days after treatment, foramsulfuron 29, sulfometuron 105 g ha^-1, non-treated 111 mm
  Annual bluegrass height S: 9 mm
